# Measured values as given in patent publication US11807835B2, “Detergent compositions containing a stabilized enzyme by phosphonates” (ECOLAB USA INC., priority 2016, dated 2023).
# Test system: protease
# Experiment: Protease activity retention in detergent use solution (4000 ppm, 5 GPG water; peptidyl substrate, glycine buffer pH 9.0)
# Assay type: biochemical
# Conditions: for Relative Protease Enzyme Activity: use solution at 120° F.
# Description: The enzyme activities in the detergents with different phosphonate levels were tested at 4000 ppm in 5 grains per gallon (GPG) water at 120° F. with various time points collected up to 4 hours, after a use solution was generated from the detergent composition. During the tests, the samples at different time points were collected and immediately frozen in an acetone/dry ice bath and stored in −80° C. before the activity of the enzyme was evaluated. For the use of such an assay, t=0 min was the reference point for 100% enzyme activity.
# Assays of enzyme activity in formulations (% retention) were conducted to simulate a presoak condition in a beaker using the chemistry, temperature, and pH conditions relevant to manual warewash or presoak applications. Enzyme activity is an indicator of the stability of the enzyme in the detergent, specifically in an aqueous use solution within a sump (which is under conditions of high pH, temperature and dilution).
# The analysis by protease assay was conducted as follows. For the assays, a detergent composition was used to generate an aqueous use solution evaluated herein.
# Enzyme activity under presoak or manual warewash conditions was traced quantitatively using a standard protease assay. Samples were prepared under bench top conditions, whereby the use solution from a detergent composition or detergent was obtained and maintained at a presoak or manual warewash temperature in a stirring water bath. After the time course for assessing enzyme stability is initiated, aliquots were taken at various time points and flash-frozen. A time=0 sample was prepared for each series by dissolving the detergent formulation at room temperature, mixing thoroughly, and flash freezing. Samples were thawed and diluted as necessary in an assay buffer usually for use in the protease assay. A glycine buffer at pH 9.0 is used here. The assay monitored the direct reaction of the protease on a small, commercially available peptidyl substrate, with liberation of the product providing correlation to the active enzyme content. The product was detected using a plate reader with an appreciable dynamic range (upper absorbance limit of the instrument >3.5). Enzyme activity levels were assessed relative to a calibration curve with average values for replicate tests used to map protease stability under presoak or manual warewash use conditions. Enzyme retention at each time point was calculated as the % enzyme activity relative to the time=0 sample.
structure (smiles),measurement,setting,value
"O=P(O)(O)CN(CP(=O)(O)O)CP(=O)(O)O [ATMP, Aminotri (methylene phosphonic acid)]",Relative Protease Enzyme Activity,"All Ash formula, phosphonate 0.3 wt-%, time 0 min",100.00%
same,Relative Protease Enzyme Activity,"All Ash formula, phosphonate 0.3 wt-%, time 5 min",84.60%
same,Relative Protease Enzyme Activity,"All Ash formula, phosphonate 0.3 wt-%, time 10 min",75.67%
same,Relative Protease Enzyme Activity,"All Ash formula, phosphonate 0.3 wt-%, time 20 min",53.32%
same,Relative Protease Enzyme Activity,"All Ash formula, phosphonate 0.3 wt-%, time 40 min",33.78%
same,Relative Protease Enzyme Activity,"All Ash formula, phosphonate 0.3 wt-%, time 60 min",22.22%
same,Relative Protease Enzyme Activity,"All Ash formula, phosphonate 0.3 wt-%, time 90 min",15.40%
same,Relative Protease Enzyme Activity,"All Ash formula, phosphonate 0.3 wt-%, time 120 min",11.13%
same,Relative Protease Enzyme Activity,"All Ash formula, phosphonate 0.3 wt-%, time 150 min",9.39%
same,Relative Protease Enzyme Activity,"All Ash formula, phosphonate 0.3 wt-%, time 180 min",7.41%
same,Relative Protease Enzyme Activity,"All Ash formula, phosphonate 0.3 wt-%, time 210 min",6.17%
same,Relative Protease Enzyme Activity,"All Ash formula, phosphonate 0.3 wt-%, time 240 min",5.58%
same,protease stability in all ash formula,"all ash formula, versus same composition with PBTC or HEDP without amine(s), FIG. 2D",more stable
same,Relative Protease Enzyme Activity,"base formula, phosphonate 0.3 wt-%, time 0 min",100.00%
same,Relative Protease Enzyme Activity,"base formula, phosphonate 0.3 wt-%, time 5 min",94.95%
same,Relative Protease Enzyme Activity,"base formula, phosphonate 0.3 wt-%, time 10 min",94.68%
same,Relative Protease Enzyme Activity,"base formula, phosphonate 0.3 wt-%, time 20 min",89.76%
same,Relative Protease Enzyme Activity,"base formula, phosphonate 0.3 wt-%, time 40 min",87.06%
same,Relative Protease Enzyme Activity,"base formula, phosphonate 0.3 wt-%, time 60 min",83.93%
same,Relative Protease Enzyme Activity,"base formula, phosphonate 0.3 wt-%, time 90 min",80.79%
same,Relative Protease Enzyme Activity,"base formula, phosphonate 0.3 wt-%, time 120 min",76.31%
same,Relative Protease Enzyme Activity,"base formula, phosphonate 0.3 wt-%, time 150 min",73.96%
same,Relative Protease Enzyme Activity,"base formula, phosphonate 0.3 wt-%, time 180 min",70.37%
same,Relative Protease Enzyme Activity,"base formula, phosphonate 0.3 wt-%, time 210 min",65.72%
same,Relative Protease Enzyme Activity,"base formula, phosphonate 0.3 wt-%, time 240 min",63.75%
same,Relative Protease Enzyme Activity,"base formula, phosphonate 0.6 wt-%, time 0 min",100.00%
same,Relative Protease Enzyme Activity,"base formula, phosphonate 0.6 wt-%, time 5 min",91.70%
same,Relative Protease Enzyme Activity,"base formula, phosphonate 0.6 wt-%, time 10 min",102.58%
same,Relative Protease Enzyme Activity,"base formula, phosphonate 0.6 wt-%, time 20 min",100.03%
same,Relative Protease Enzyme Activity,"base formula, phosphonate 0.6 wt-%, time 40 min",97.16%
same,Relative Protease Enzyme Activity,"base formula, phosphonate 0.6 wt-%, time 60 min",92.31%
same,Relative Protease Enzyme Activity,"base formula, phosphonate 0.6 wt-%, time 90 min",89.99%
same,Relative Protease Enzyme Activity,"base formula, phosphonate 0.6 wt-%, time 120 min",91.60%
same,Relative Protease Enzyme Activity,"base formula, phosphonate 0.6 wt-%, time 150 min",86.21%
same,Relative Protease Enzyme Activity,"base formula, phosphonate 0.6 wt-%, time 180 min",89.08%
same,Relative Protease Enzyme Activity,"base formula, phosphonate 0.6 wt-%, time 210 min",89.86%
same,Relative Protease Enzyme Activity,"base formula, phosphonate 0.6 wt-%, time 240 min",82.33%
same,Relative Protease Enzyme Activity,"base formula, phosphonate at 0.1% elemental phosphorus, time 0 min",100.00%
same,Relative Protease Enzyme Activity,"base formula, phosphonate at 0.1% elemental phosphorus, time 5 min",122.55%
same,Relative Protease Enzyme Activity,"base formula, phosphonate at 0.1% elemental phosphorus, time 10 min",116.65%
same,Relative Protease Enzyme Activity,"base formula, phosphonate at 0.1% elemental phosphorus, time 20 min",115.14%
same,Relative Protease Enzyme Activity,"base formula, phosphonate at 0.1% elemental phosphorus, time 40 min",107.73%
same,Relative Protease Enzyme Activity,"base formula, phosphonate at 0.1% elemental phosphorus, time 60 min",102.70%
same,Relative Protease Enzyme Activity,"base formula, phosphonate at 0.1% elemental phosphorus, time 90 min",111.18%
same,Relative Protease Enzyme Activity,"base formula, phosphonate at 0.1% elemental phosphorus, time 120 min",106.19%
same,Relative Protease Enzyme Activity,"base formula, phosphonate at 0.1% elemental phosphorus, time 150 min",96.80%
same,Relative Protease Enzyme Activity,"base formula, phosphonate at 0.1% elemental phosphorus, time 180 min",93.35%
same,Relative Protease Enzyme Activity,"base formula, phosphonate at 0.1% elemental phosphorus, time 210 min",90.51%
same,Relative Protease Enzyme Activity,"base formula, phosphonate at 0.1% elemental phosphorus, time 240 min",88.60%
